± gives the expanded uncertainty stated by the source.
Conditions: for kinematic viscosity: Liquid, Scattered Light Surfacing

CCF [fluoroethane]
Conditions	surface tension liquid-gas [mN/m]
244.13 K, Capillary rise	16.72 ± 0.5
246.15 K, Capillary rise	16.42 ± 0.5
248.13 K, Capillary rise	16.18 ± 0.49
250.05 K, Capillary rise	15.87 ± 0.48
252.1 K, Capillary rise	15.59 ± 0.47
254.15 K, Capillary rise	15.26 ± 0.46
256.05 K, Capillary rise	14.97 ± 0.45
258.13 K, Capillary rise	14.69 ± 0.44
260.05 K, Capillary rise	14.38 ± 0.43
262.08 K, Capillary rise	14.13 ± 0.43
264.13 K, Capillary rise	13.85 ± 0.42
266.1 K, Capillary rise	13.58 ± 0.41
268.08 K, Capillary rise	13.27 ± 0.4
270.1 K, Capillary rise	13 ± 0.39
272.04 K, Capillary rise	12.69 ± 0.38
274.1 K, Capillary rise	12.4 ± 0.38
276.03 K, Capillary rise	12.08 ± 0.37
278.14 K, Capillary rise	11.81 ± 0.36
280.14 K, Capillary rise	11.54 ± 0.35
282.14 K, Capillary rise	11.25 ± 0.34
284.14 K, Capillary rise	10.95 ± 0.33
286.12 K, Capillary rise	10.67 ± 0.32
288.13 K, Capillary rise	10.38 ± 0.32
290.12 K, Capillary rise	10.1 ± 0.31
292.13 K, Capillary rise	9.82 ± 0.3
293.43 K, Surface Light Scattering	9.46 ± 0.28
294.12 K, Capillary rise	9.53 ± 0.29
296.12 K, Capillary rise	9.24 ± 0.28
298.1 K, Capillary rise	8.96 ± 0.27
300.11 K, Capillary rise	8.66 ± 0.26
302.17 K, Capillary rise	8.37 ± 0.26
303.14 K, Surface Light Scattering	8.16 ± 0.25
304.11 K, Capillary rise	8.08 ± 0.25
305.13 K, Capillary rise	7.95 ± 0.24
306.12 K, Capillary rise	7.83 ± 0.24
308.12 K, Capillary rise	7.54 ± 0.23
310.18 K, Capillary rise	7.27 ± 0.22
312.17 K, Capillary rise	7 ± 0.21
313.11 K, Surface Light Scattering	6.78 ± 0.2
314.18 K, Capillary rise	6.71 ± 0.21
316.17 K, Capillary rise	6.44 ± 0.2
318.16 K, Capillary rise	6.17 ± 0.19
320.17 K, Capillary rise	5.86 ± 0.18
322.18 K, Capillary rise	5.61 ± 0.17
323.14 K, Surface Light Scattering	5.46 ± 0.16
324.18 K, Capillary rise	5.39 ± 0.17
326.17 K, Capillary rise	5.08 ± 0.16
328.16 K, Capillary rise	4.84 ± 0.15
330.17 K, Capillary rise	4.6 ± 0.14
332.17 K, Capillary rise	4.33 ± 0.14
333.15 K, Surface Light Scattering	4.2 ± 0.13
334.16 K, Capillary rise	4.1 ± 0.13
343.14 K, Surface Light Scattering	3 ± 0.09
353.12 K, Surface Light Scattering	1.89 ± 0.06
363.11 K, Surface Light Scattering	0.92 ± 0.03
373.09 K, Surface Light Scattering	0.13 ± 0.01

Conditions	kinematic viscosity [m2/s]
293.43 K	1.81e-07 ± 2.3e-08
303.14 K	1.66e-07 ± 2.2e-08
313.11 K	1.52e-07 ± 2e-08
323.14 K	1.42e-07 ± 1.9e-08
333.15 K	1.32e-07 ± 1.8e-08
343.14 K	1.22e-07 ± 1.7e-08
353.12 K	1.12e-07 ± 1.5e-08
363.11 K	1.03e-07 ± 1.5e-08
373.09 K	8.97e-08 ± 1.3e-08

From the NIST ThermoML archive (doi:10.1016/j.fluid.2015.07.010)
